Test results reported in patent US20130245110A1, “USE FOR CANNABINOIDS” (priority 2008, published 2013).
“And” between values parts separate entries of the source, which are not always exact repeats. Equal values may be shown once.

Tests used:
[1] = test system: dietary induced obese (DIO) mouse model; assay: 24 h energy expenditure by indirect calorimetry, chronic dosing study; assay type: in vivo; conditions: DIO mice; 10 mg·kg−1 p.o.; relative to control, first 12 h post-dosing
Description: The C57B1/6 mouse fed on a high fat diet for around 12 weeks is a standard model used to evaluate agents likely to affect metabolic disease including obesity, type II diabetes and dyslipidaemia. Thus both potential anti-obesity effects and effects on diabetic and dyslipidaemia parameters will be measured.
(§1) Once the acute studies were complete the mice were grouped in two groups of five mice for the chronic dosing study. Dosing was daily by oral gavage at 09:00-10:00.

[2] = test system: dietary induced obese (DIO) mouse model; assay: Thermic response to food (energy expenditure after Complan meal), chronic dosing study; assay type: in vivo; design: Thermic response to food: unit not given here; conditions: DIO mice, days 15-17; for Thermic response to food: 10 mg·kg−1 p.o.
Description: as §1
Energy expenditure consists of basal metabolic rate, exercise-induced energy expenditure, and non-exercise thermogenesis. The latter is the most likely area to be affected by anti-obesity agents. Non-exercise thermogenesis includes the thermic response to food, which in rodents can be measured by examining energy expenditure in response to a meal. This was measured after an oral dose of complan (see methods).

[3] = target: T1, pancreatic lipase (Homo sapiens, UniProt P16233); conditions: subjects eating a 30% fat diet; cited from earlier work
T1 construct: host or cells: endogenous enzyme in subjects (in vivo)
T1 sequence (P16233 17-465): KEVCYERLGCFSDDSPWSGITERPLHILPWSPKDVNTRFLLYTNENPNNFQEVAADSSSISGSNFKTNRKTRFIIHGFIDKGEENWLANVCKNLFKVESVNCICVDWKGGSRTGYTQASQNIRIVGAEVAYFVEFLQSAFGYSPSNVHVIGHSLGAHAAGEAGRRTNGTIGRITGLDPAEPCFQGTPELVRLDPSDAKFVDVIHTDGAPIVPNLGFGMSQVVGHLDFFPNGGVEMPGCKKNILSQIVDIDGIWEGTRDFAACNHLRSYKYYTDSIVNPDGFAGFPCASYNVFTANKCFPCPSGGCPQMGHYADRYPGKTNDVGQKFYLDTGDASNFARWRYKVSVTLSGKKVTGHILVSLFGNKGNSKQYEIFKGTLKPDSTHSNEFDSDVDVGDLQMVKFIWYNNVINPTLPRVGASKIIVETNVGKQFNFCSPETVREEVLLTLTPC

[4] = test system: rat isolated aortae; assay: In vitro vascular studies by wire myography

For Cc1c(C(=O)NN2CCCCC2)nn(-c2ccc(Cl)cc2Cl)c1-c1ccc(Cl)cc1 [rimonabant, reference compound], the “Effect on 24 h energy expenditure (days 10-12)” value [1] was “small increase in energy expenditure”, the “Thermic response to food” value ([2]; Hour 0.44) was 1.11 and 1.21 and 2.21 and the “Thermic response to food” value ([2]; Hour 0.67) was 1.38 and 1.56 and 2.67. For the same compound, the “Thermic response to food” value ([2]; Hour 4.00) was 1.56 and 2.90 and 3.09 and the “Thermic response to food, effect in words” value ([2]; chronic-study doses (rimonabant 10, pure THCV 0.3 mg·kg−1 p.o.)) was “without effect”.
For CCCCCCCCCCC[C@@H](C[C@@H]1OC(=O)[C@H]1CCCCCC)OC(=O)[C@H](CC(C)C)NC=O [Orlistat], the “Block of triacylglycerol hydrolysis” value [3] is given as 30%.
In the case of COc1ccc(CCN(C)CCCC(C#N)(c2ccc(OC)c(OC)c2)C(C)C)cc1OC (stereo not shown) [verapamil, reference compound], the “Vasorelaxation of pre-constricted vessels” value [4] is reported as “significant vasorelaxation”.
